Source: patent US10214526B2, “Substituted pyrazolo[1,5-a]-pyridine-3-carboxamides and use thereof” (Bayer Pharma Aktiengesellschaft, priority 2015, dated 2019)
Counter-ions that a name gives are not always drawn.

Test system: recombinant guanylate cyclase reporter cell line
Test: Effect on a recombinant guanylate cyclase reporter cell line
Type: cell-based
Conditions: in some cases mean values from individual determinations
Experimental: B-2. Effect on a Recombinant Guanylate Cyclase Reporter Cell Line
The cellular activity of the compounds according to the invention is determined using a recombinant guanylate cyclase reporter cell line, as described in F. Wunder et al., Anal. Biochem. 339, 104-112 (2005).
Representative MEC values (MEC=minimum effective concentration) for the compounds of the invention are shown in the table below (in some cases as mean values from individual determinations): […]

First: Cc1cc(OCc2c(F)cccc2F)n2nc(C)c(C(=O)NC(C)(CO)c3nnn(C(F)F)n3)c2c1 (racemic) [Example 2, rac-7-[(2,6-Difluorobenzyl)oxy]-N-{2-[2-(difluoromethyl)-2H-tetrazol-5-yl]-1-hydroxypropan-2-yl}-2,5-dimethylpyrazolo[1,5-a]pyridine-3-carboxamide]
Second: Cc1cc(OCc2c(F)cccc2F)n2nc(C)c(C(=O)N[C@@](C)(CO)c3nnc(C)s3)c2c1 [Example 1, 7-[(2,6-Difluorobenzyl)oxy]-N-[(2S)-1-hydroxy-2-(5-methyl-1,3,4-thiadiazol-2-yl)propan-2-yl]-2,5-dimethylpyrazolo[1,5-a]pyridine-3-carboxamide trifluoroacetate]
The “MEC (minimum effective concentration)” value of the first is 2-fold lower: 0.10 µM for the first, 0.20 µM for the second.

Going from `[2H]C([2H])([2H])CC(C)(N)CNC(=O)c1c(C)nn2c(OCc3c(F)cccc3F)cc(C)cc12` (single isomer, unassigned; enantiomer a) [Example 3, ent-N-[2-Amino-2-methyl(4,4,4,4-^2H3)butyl]-7-[(2,6-difluorobenzyl)oxy]-2,5-dimethylpyrazolo[1,5-a]pyridine-3-carboxamide (Enantiomer A)] to `Cc1cc(OCc2c(F)cccc2F)n2nc(C)c(C(=O)NCC(C)(N)CC[Si](C)(C)C)c2c1` (single isomer, unassigned; enantiomer a) [Example 4, ent-N-[2-Amino-2-methyl-4-(trimethylsilyl)butyl]-7-[(2,6-difluorobenzyl)oxy]-2,5-dimethylpyrazolo[1,5-a]pyridine-3-carboxamide (Enantiomer A)], the “MEC (minimum effective concentration)” value rises from 0.30 µM to 0.53 µM (1.8-fold).

In the case of `Cc1cc(OCc2c(F)cccc2F)n2nc(C)c(C(=O)NCC(C)(N)CC[Si](C)(C)C)c2c1` (single isomer, unassigned; enantiomer b) [Example 5, ent-N-[2-Amino-2-methyl-4-(trimethylsilyl)butyl]-7-[(2,6-difluorobenzyl)oxy]-2,5-dimethylpyrazolo[1,5-a]pyridine-3-carboxamide (Enantiomer B)], the “MEC (minimum effective concentration)” value was 0.30 µM.
